In patent US8367602B2, “Consensus peptides and a method for inducing biomineralization” (Corticalis AS, priority 2006, dated 2013):
“And” between values parts separate entries of the source, which are not always exact repeats. Equal values may be shown once. Ends that are not written are not given here.

Legend:
LDH activity [1] = experiment: Wound fluid LDH activity at implant site, tresyl chloride coupled peptide, Example 5; format: in vivo, rabbits (New Zealand White); conditions: 4 weeks healing, vs control implants; tresyl chloride coupling
Description: The surface of the machined titanium implant was first covered with 10 μl of tresyl chloride (2,2,2-trifluoroethanesulfonyl chloride) and incubated at 37° C. for 2 days. Then, the tresylated titanium implant was washed with water, water-acetone (50:50), acetone, and dried in a desiccator.
Peptide solution (10 μl, 0.1 mg/ml) was applied to the surface of the titanium implant and incubated for 24 h at 37° C., then rinsed with water. Finally, implants were dried in a desiccator, packed and stored at 4° C.
(§1) The implants with consensus peptide coated surfaces (n=12) and controls (n=12) were placed in calibrated cortical bone defects in the tibia of rabbits (New Zealand White). A small central fenestration into the bone marrow beneath each implant was made to allow for migration of osteogenic cells to the implant surfaces. The methods used were all according to a standardized and validated model established for the study of bone attachment to titanium implant surfaces (Rønold and Ellingsen, 2002). Each rabbit received four implants, two in each tibia bone. Location of test and control implants was randomized and the operator was blinded. At four weeks after implantation the rabbits were sacrificed and the tibia bones with the implants attached were excised. […]
(§2) LDH activity and total protein was analysed in the wound fluid collected from the implant site following a 4 week healing period. […]

LDH activity [2] = experiment: Wound fluid LDH activity at implant site, physically adsorbed peptide, Example 6; format: in vivo, rabbits (New Zealand White); conditions: 4 weeks healing, vs control implants; physical adsorption
Description: Peptides can be physically adsorbed onto a titanium surface, as an alternative method for covalent binding. Negatively charged carboxylic groups show a strong affinity for metal oxide surfaces and can therefore directly interact with the titanium surface (Imamura et al, 2007). Peptide solution (10 μl, 0.1 mg/ml) was applied to the surface of the titanium implant and incubated for 24 h at 37° C. After 24 h, titanium implants were rinsed and packed with the same method as described above. Control implants were treated with 10 μl of PBS without adding peptide.
as §1, with “blinded.” for “blinded. At four weeks after implantation the rabbits were sacrificed and the tibia bones with the implants attached were excised.”
as §2

[3] = Mineral precipitation (mfu by SEM) on peptide-coated coin shaped titanium specimens, Example 1
Description: Eight coin shaped implants with a diameter of 6.25 mm, was attached to an titanium electrode and submerged in an sterile electrolyte containing 0.5 M NaCl, adjusted to pH 8.0 by the use of 1.0 M NaOH, and a synthetic poly-proline peptide designed to stimulate nucleation of calcium phosphate crystals. The peptide, having a pI of 5.82, had the following sequence: PLV PSY PLV PSY PLV PSY PYP PLPP (SEQ ID NO:3), and was applied at a final concentration of 0.01 mg/ml in the electrolyte. The electrode was attached to the positive outlet of a power supply, and an electrical current of 10 Volts at 100 mA at a cell temperature of 40 degrees Celsius, was applied for eight hours. The electrolytic process produced a thin peptide coating onto the oxidized titanium surface visible as a greyish precipitation. After coating the titanium specimens were rinsed in sterile water and subsequently put into sterile glass containers where they were allowed to air-dry. Eight identical titanium specimens, treated identically as the test specimens with the exception that no peptides were added to the electrolyte, was produced as controls. After drying, the titanium specimens (peptide coated and controls) were submerged in 50 ml of a saturated solution of calcium phosphate at 50 degrees Celsius. The solution was then allowed to cool to room temperature and incubated at 25 degrees Celsius for 48 hours. The titanium specimens were then removed from the solution, rinsed briefly in sterile water and air-dried in a desiccator. When dry, the implants were directly analyzed by scanning electron microscopy (SEM) for quantitative and qualitative assessment of the number and nature of mineral precipitation foci present on their surfaces. The number of mineral forming units (mfu) on the surface directly corresponds to the number of mineral nucleation sites present on the surface during the experiments.
This is a strong indication that the synthetic peptide used here positively influence the formation of bone mineral deposition onto titanium surfaces.

[4] = Isoelectric point (pI) of the peptide; format: physicochemical

Substance	LDH activity in the periimplant tissue (wound fluid) (LDH activity [1])	LDH activity in the periimplant tissue (wound fluid) (LDH activity [2])	Number of mineral forming units (mfu) per square mm titanium surface assessed by SEM ([3]; individual peptide coated specimens, saturated calcium phosphate solution, 48 hours at 25 degrees Celsius)	Number of mineral forming units (mfu) per square mm titanium surface assessed by SEM, mean values ([3]; mean of peptide coated specimens (n = 8)) [mfu mfu per square mm]	number of mineral deposition foci versus controls ([3]; peptide coated titanium specimens vs controls without peptide)	pI [4]
PLVPSQPLVPSQPLVPSQPQPPLPP [SEQ ID NO 4, PLV PSQ PLV PSQ PLV PSQ PQP PLPP]	decrease	decrease				
PLV PSY PLV PSY PLV PSY PYP PLPP (PLVPSYPLVPSYPLVPSYPYPPLPP; Mineralization/biomineralization inducing peptide) [SEQ ID NO 3]			5625 mfu mfu per square mm and Confluent (Values above 10.000 are recorded as “Confluent”) (4×) and 7744 mfu mfu per square mm and 9025 mfu mfu per square mm and 8100 mfu mfu per square mm	>8812	significantly (p<0.01) increased	5.82
